How the values were obtained:
p300 = target: T1, p300 (Homo sapiens, UniProt Q09472); assay: P300 degradation, HiBit technology in A549 P300 HiBit cells (2 h); assay type: cell-based; settings: 2 hrs post treatment; for Dmax: A549, A549 P300 HiBit cells; for DC50: A549 P300 HiBit cells
T1 construct: host or cells: A549 P300 HiBit cells
Method in brief: (§1)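 HiBiT knock-in A549 cells received compound in serial dilution at 37 °C under 5% CO2. Remaining tagged protein was quantified by lytic HiBiT luminescence after 10 min shaking at room temperature, yielding potency and maximal degradation.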

CBP = target: T2, CBP (Homo sapiens, UniProt Q92793); assay: CBP degradation, HiBit technology in A549 CBP HiBit cells (24 h); assay type: cell-based; settings: 24 hrs post treatment
T2 construct: host or cells: A549 CBP HiBit cells
T2 sequence (Q92793 whole entry): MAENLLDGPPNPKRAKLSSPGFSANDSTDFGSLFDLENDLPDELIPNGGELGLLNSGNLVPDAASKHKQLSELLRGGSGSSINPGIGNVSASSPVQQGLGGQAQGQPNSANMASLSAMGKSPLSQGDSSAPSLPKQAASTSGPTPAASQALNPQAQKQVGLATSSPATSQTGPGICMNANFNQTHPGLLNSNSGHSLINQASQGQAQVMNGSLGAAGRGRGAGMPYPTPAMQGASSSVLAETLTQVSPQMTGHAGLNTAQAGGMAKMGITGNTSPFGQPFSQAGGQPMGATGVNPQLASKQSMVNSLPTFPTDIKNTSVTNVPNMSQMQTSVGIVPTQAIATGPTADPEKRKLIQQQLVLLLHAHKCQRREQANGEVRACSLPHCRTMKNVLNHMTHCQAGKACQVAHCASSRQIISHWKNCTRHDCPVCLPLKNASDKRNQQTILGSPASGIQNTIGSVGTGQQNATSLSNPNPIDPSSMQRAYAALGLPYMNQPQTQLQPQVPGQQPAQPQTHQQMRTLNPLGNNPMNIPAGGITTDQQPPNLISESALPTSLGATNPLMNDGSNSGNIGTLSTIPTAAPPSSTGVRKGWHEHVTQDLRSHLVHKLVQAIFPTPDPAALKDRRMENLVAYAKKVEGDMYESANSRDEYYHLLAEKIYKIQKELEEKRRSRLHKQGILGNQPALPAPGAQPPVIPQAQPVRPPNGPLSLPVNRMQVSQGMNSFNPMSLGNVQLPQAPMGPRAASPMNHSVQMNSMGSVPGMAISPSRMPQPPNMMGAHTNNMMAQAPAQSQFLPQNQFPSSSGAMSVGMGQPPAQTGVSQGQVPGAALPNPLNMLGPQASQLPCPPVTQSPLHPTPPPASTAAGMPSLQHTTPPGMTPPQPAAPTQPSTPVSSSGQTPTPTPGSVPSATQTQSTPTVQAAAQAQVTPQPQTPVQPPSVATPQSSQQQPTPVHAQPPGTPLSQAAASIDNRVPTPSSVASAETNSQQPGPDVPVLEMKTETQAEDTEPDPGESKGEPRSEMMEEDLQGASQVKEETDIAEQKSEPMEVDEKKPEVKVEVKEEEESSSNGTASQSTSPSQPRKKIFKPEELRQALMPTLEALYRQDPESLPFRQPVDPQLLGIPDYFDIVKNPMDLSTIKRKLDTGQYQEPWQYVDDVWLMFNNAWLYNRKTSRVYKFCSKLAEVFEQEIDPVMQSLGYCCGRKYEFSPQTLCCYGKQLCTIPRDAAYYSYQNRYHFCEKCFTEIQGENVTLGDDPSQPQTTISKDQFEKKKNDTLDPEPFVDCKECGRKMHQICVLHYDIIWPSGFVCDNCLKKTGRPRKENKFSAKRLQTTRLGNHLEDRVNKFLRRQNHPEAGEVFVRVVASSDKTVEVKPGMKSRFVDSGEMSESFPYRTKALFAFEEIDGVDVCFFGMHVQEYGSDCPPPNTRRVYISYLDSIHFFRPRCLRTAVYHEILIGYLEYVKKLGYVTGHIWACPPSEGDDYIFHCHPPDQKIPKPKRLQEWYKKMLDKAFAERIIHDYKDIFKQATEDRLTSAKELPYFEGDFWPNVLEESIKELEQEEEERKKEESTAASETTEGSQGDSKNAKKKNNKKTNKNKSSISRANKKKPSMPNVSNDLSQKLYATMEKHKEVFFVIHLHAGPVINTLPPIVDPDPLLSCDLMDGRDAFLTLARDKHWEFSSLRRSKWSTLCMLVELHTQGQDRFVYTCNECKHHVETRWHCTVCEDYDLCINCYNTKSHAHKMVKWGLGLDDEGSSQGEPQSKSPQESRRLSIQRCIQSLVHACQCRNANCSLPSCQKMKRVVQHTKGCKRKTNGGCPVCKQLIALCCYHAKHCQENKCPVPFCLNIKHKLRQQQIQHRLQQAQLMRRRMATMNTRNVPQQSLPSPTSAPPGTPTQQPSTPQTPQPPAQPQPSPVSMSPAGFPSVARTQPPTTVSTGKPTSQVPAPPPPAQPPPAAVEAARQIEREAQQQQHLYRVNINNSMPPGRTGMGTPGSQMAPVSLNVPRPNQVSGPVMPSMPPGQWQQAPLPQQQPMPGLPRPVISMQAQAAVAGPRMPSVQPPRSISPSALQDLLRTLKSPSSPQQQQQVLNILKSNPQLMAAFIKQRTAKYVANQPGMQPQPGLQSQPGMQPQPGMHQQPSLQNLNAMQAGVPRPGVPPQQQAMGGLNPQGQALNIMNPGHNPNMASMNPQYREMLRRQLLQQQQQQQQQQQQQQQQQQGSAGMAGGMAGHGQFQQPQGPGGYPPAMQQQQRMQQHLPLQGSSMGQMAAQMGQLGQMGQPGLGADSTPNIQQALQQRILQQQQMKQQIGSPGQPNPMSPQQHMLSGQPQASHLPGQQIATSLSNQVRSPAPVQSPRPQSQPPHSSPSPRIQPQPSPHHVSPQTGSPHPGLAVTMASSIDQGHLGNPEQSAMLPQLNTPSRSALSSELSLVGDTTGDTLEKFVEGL
Method in brief: as §1

T1 sequence (Q09472 whole entry): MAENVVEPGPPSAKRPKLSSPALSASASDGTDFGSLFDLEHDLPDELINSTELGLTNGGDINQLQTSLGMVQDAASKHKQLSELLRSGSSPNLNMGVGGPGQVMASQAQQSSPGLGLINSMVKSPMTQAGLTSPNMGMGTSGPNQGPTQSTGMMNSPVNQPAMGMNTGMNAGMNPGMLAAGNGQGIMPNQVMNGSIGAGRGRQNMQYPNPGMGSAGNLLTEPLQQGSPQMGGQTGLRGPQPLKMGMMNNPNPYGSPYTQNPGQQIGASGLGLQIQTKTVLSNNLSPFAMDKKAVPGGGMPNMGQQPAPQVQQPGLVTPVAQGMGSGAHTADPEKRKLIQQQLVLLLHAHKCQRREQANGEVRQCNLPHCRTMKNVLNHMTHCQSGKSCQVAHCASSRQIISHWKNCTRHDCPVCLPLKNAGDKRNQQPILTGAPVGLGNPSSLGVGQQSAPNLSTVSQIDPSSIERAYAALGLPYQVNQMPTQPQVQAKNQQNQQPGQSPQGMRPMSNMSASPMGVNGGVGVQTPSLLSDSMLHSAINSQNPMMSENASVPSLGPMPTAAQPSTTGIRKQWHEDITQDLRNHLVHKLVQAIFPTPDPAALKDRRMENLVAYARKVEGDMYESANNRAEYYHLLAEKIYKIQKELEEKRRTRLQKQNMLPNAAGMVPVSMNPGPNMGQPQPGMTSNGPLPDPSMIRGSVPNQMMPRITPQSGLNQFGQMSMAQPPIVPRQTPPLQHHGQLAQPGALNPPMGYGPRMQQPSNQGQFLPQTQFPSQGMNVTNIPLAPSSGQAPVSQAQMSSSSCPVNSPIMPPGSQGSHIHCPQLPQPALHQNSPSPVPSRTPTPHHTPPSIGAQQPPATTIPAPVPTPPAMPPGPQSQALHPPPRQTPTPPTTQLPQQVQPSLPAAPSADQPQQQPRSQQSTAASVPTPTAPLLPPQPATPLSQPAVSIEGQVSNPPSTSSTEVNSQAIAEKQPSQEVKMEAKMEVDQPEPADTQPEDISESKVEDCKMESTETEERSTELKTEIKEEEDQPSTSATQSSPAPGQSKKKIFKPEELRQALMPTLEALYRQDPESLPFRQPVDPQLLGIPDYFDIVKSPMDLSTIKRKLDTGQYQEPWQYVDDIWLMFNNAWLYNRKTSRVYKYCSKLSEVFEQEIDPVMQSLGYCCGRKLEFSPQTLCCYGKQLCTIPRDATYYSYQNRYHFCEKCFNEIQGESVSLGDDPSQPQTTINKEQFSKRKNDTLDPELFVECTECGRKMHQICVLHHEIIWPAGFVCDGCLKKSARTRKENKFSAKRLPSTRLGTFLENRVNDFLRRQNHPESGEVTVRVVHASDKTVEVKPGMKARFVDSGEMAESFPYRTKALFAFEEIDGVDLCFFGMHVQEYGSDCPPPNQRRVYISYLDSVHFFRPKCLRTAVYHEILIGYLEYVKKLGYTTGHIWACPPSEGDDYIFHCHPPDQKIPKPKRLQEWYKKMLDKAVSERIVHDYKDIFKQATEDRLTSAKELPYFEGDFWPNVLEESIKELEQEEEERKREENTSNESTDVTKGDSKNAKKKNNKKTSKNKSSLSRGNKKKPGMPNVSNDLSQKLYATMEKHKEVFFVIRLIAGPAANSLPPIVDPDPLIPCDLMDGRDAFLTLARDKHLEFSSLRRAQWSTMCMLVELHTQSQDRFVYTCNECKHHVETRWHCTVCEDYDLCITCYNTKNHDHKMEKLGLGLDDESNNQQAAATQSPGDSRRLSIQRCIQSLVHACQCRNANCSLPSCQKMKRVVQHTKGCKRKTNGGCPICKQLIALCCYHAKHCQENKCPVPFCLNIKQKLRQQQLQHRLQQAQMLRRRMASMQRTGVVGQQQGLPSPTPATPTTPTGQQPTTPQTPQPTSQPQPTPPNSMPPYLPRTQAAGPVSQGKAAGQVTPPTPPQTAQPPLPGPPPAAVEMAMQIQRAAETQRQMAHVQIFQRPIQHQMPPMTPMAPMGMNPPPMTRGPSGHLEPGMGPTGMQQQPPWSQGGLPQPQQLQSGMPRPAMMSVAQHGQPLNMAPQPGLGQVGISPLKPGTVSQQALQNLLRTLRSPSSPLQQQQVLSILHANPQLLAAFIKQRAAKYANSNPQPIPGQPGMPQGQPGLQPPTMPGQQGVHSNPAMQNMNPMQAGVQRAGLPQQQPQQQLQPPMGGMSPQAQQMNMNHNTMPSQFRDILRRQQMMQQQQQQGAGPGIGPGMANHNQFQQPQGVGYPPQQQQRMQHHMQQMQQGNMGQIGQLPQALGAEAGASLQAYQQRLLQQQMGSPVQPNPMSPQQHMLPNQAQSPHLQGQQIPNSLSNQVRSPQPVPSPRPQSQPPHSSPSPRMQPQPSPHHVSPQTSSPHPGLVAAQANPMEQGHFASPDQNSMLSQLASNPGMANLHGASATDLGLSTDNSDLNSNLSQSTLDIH

Compound	Dmax (p300) [%]	DC50 (p300) [nM]	DC50 (CBP) [nM]	Dmax (CBP) [%]
CC(C)c1cc(-c2cccc3cc(-c4ccc(C(=O)NCC#Cc5ccc6scc(C7CCC(=O)NC7=O)c6c5)nc4)ncc23)cc2c1n(C)c(=O)n2C (stereo not shown) [Example A164, N-(3-(3-(2,6-dioxo-piperidin-3-yl)benzo[b]thiophen-5-yl)prop-2-yn-1-yl)-5-(8-(7-isopropyl-1,3-dimethyl-2-oxo-2,3-dihydro-1H-benzo [d]imidazol-5-yl)isoquinolin-3-yl)picolinamide]	> 80	10 to 99	> 1000	< 20
Cn1c(=O)n(C)c2cc(N3CCOc4nc(-c5ccc(C(=O)NCC#Cc6cc7c(C8CCC(=O)NC8=O)cccc7o6)nc5)ncc43)ccc21 (stereo not shown) [Example A165, 5-(5-(1,3-dimethyl-2-oxo-2,3-dihydro-1H-benzo[d]imidazol-5-yl)-6,7-dihydro-5H-pyrimido[4,5-b][1,4]oxazin-2-yl)-N-(3-(4-(2,6-dioxopiperidin-3-yl)benzofuran-2-yl)prop-2-yn-1-yl)picolinamide]	> 80	1 to 9.9	> 1000	< 20
Cn1c(=O)n(C)c2cc(-c3cccc4cc(-c5ccc(C(=O)NCC#Cc6cc7c([C@@H]8CCC(=O)NC8=O)cccc7o6)nc5)ncc34)ccc21 [Example A171, (S)-5-(8-(1,3-dimethyl-2-oxo-2,3-dihydro-1H-benzo[d]imidazol-5-yl)isoquinolin-3-yl)-N-(3-(4-(2,6-dioxopiperidin-3-yl)benzofuran-2-yl)prop-2-yn-1-yl)picolinamide]	> 80	1 to 9.9	> 1000	< 20

More lines, now with the values ahead:

Dmax (p300) [%]	DC50 (p300) [nM]	DC50 (CBP) [nM]	Dmax (CBP) [%]	Compound
> 80	< 1	> 1000	< 20	Cn1c(=O)n(C)c2cc(-c3cccc4cc(-c5ccc(C(=O)NCC#Cc6ccc7nnn(C8CCC(=O)NC8=O)c7c6)nc5)ncc34)ccc21 (stereo not shown) [Example A163, 5-(8-(1,3-dimethyl-2-oxo-2,3-dihydro-1H-benzo[d]imidazol-5-yl)isoquinolin-3-yl)-N-(3-(1-(2,6-dioxo-piperidin-3-yl)-1H-benzo[d][1,2,3]triazol-6-yl)prop-2-yn-1-yl)picolinamide]
> 80	< 1	> 1000	< 20	Cn1c(=O)n(C)c2cc(-c3cccc4cc(-c5ccc(C(=O)NCC#Cc6cc7c(C8CCC(=O)NC8=O)cccc7o6)nc5)ncc34)ccc21 (stereo not shown) [Example A169, 5-(8-(1,3-dimethyl-2-oxo-2,3-dihydro-1H-benzo[d]imidazol-5-yl)isoquinolin-3-yl)-N-(3-(4-(2,6-dioxo-piperidin-3-yl)benzofuran-2-yl)prop-2-yn-1-yl)picolinamide]
> 80	< 1	> 1000	< 20	Cn1c(=O)n(C)c2cc(-c3cccc4cc(-c5ccc(C(=O)NCC#Cc6cc7c([C@H]8CCC(=O)NC8=O)cccc7o6)nc5)ncc34)ccc21 [Example A170, (R)-5-(8-(1,3-dimethyl-2-oxo-2,3-dihydro-1H-benzo[d]imidazol-5-yl)isoquinolin-3-yl)-N-(3-(4-(2,6-dioxo-piperidin-3-yl)benzofuran-2-yl)prop-2-yn-1-yl)picolinamide]
> 80	< 1	100 to 999	< 20	CC(C)c1cc(-c2cccc3cc(-c4ccc(C(=O)NCC#Cc5ccn6ncc(C7CCC(=O)NC7=O)c6c5)nc4)ncc23)cc2c1n(C)c(=O)n2C (stereo not shown) [Example A172, N-(3-(3-(2,6-dioxo-piperidin-3-yl)pyrazolo[1,5-a]pyridin-5-yl)prop-2-yn-1-yl)-5-(8-(7-isopropyl-1,3-dimethyl-2-oxo-2,3-dihydro-1H-benzo[d]imidazol-5-yl)isoquinolin-3-yl)picolinamide]

Reference: patent US20250114345A1, “COMPOUNDS AND COMPOSITIONS AS CBP/P300 DEGRADERS AND USES THEREOF” (Oncopia Therapeutics, Inc. d/b/a/ SK Life Science Labs, priority 2023, published 2025)
